# Laboratory results: patent publication US11806342B2, “Diiodohydroxyquinoline for the treatment of clostridium difficile infection” (Purdue Research Foundation, priority 2019, dated 2023)
# Read-outs that look alike come from different tables or passages of the source.
# Legend:
# C. difficile ATCC 43255 = assay: Spore inhibition assay; type: cell-based, Clostridium difficile; conditions: five days
# Description: (§1) The spore inhibition assay was performed as described in previous reports to investigate the effect of diiodohydroxyquinoline on C. difficile spore formation. Briefly, […], the bacterial suspension was split into microcentrifuge tubes and drugs were added (in triplicates) at concentrations equal to ½×MIC or 1×MIC. Tubes were then, incubated anaerobically for five days at 37° C. Thereafter, an aliquot from each tube was diluted and plated on BHIS agar plates supplemented with 0.1% taurocholic acid, to count the total bacterial counts (vegetative bacteria+spores). The remaining solution was centrifuged, and the pellet was suspended in PBS, stored overnight at 4° C., and subsequently shock-heated at 70° C. for 30 minutes to kill the vegetative cells. The resulting solution was serially diluted and plated to determine the heat-resistant spore counts. Spore inhibition assay was performed as described in previous reports to investigate the effect of DIHQ on C. difficile spore formation. Briefly, log-phase cultures of C. difficile strains (ATCC BAA-1870, ATCC 43255, and NR-49277) were diluted in BHIS to an initial density of ˜10^6 CFU/mL. Afterwards, the bacterial suspension was split in small tubes and the drugs were added (in triplicates) at concentrations equal to ½×MIC or 1×MIC. Tubes were then incubated anaerobically for 5 days at 37° C. After that, an aliquot from each tube was diluted and plated on BHIS agar plates supplemented with 0.1% taurocholic acid, to count the total bacterial count (vegetative bacteria+spores). The remaining solution was centrifuged, and the pellet was suspended in PBS and stored overnight at 4° C. then shock heated at 70° C. for 30 minutes to kill the vegetative cells. The resulting solution was serially diluted and plated to determine the heat-resistant spore counts.
# [1] = tested on: C. difficile ATCC BAA-1870; assay: Spore inhibition assay; type: cell-based, Clostridium difficile; conditions: five days
# Description: as §1
# C. difficile NR-49277 [2] = assay: Spore inhibition assay; type: cell-based, Clostridium difficile; conditions: five days
# Description: as §1
# [3] = tested on: Bifidobacterium adolescentis HM-633; assay: MIC against normal gut microflora, broth microdilution; type: cell-based; conditions: HM633
# Description: (§2) In vitro antimicrobial evaluation of diiodohydroxyquinoline against normal microflora. The broth microdilution assay was utilized to determine the MICs of DIHQ and control antibiotics against commensal organisms that compose he human gut microflora, as described elsewhere. A bacterial solution equivalent to 0.5 McFarland standard was prepared and diluted in BHIS broth (for Bifidobacterium and Bacteroides) or in MRS broth (for Lactobacillus) to achieve a bacterial concentration of about 5×10^5 CFU/mL. Then, drugs were added and serially diluted along the plates.
# [4] = tested on: Bifidobacterium breve HM-1120; assay: as above; type: cell-based; conditions: HM1120
# Description: as §2
# [5] = tested on: Bifidobacterium longum HM-847; assay: as above; type: cell-based; conditions: HM847
# Description: as §2
# [6] = tested on: Bifidobacterium longum HM-845; assay: as above; type: cell-based; conditions: HM845
# Description: as §2
# Bacteroides dorei HM-719 = assay: as above; type: cell-based; conditions: Phocaeicola dorei, HM719
# Description: as §2
# [7] = tested on: Bacteroides fragilis HM-711; assay: as above; type: cell-based; conditions: HM711
# Description: as §2
# [8] = tested on: Bifidobacterium breve HM-411; assay: as above; type: cell-based; conditions: HM411
# Description: as §2
# [9] = tested on: Bacteroides fragilis HM-710; assay: as above; type: cell-based; conditions: HM710
# Description: as §2
# [10] = tested on: Bacteroides fragilis HM-709; assay: as above; type: cell-based; conditions: HM709
# Description: as §2
# [11] = tested on: Bifidobacterium angulatum HM-1189; assay: as above; type: cell-based; conditions: HM1189
# Description: as §2
# [12] = tested on: Lactobacillus crispatus HM-371; assay: as above; type: cell-based; conditions: HM371
# Description: as §2
# Bacteroides dorei HM-29 = assay: as above; type: cell-based; conditions: Phocaeicola dorei, HM29
# Description: as §2
# [13] = tested on: Lactobacillus reuteri HM-102; assay: as above; type: cell-based
# Description: as §2
# [14] = tested on: Lactobacillus casei ATCC 334; assay: as above; type: cell-based; conditions: Lacticaseibacillus casei, ATCC334
# Description: as §2
# Bacteroides dorei HM-717 = assay: as above; type: cell-based; conditions: Phocaeicola dorei, HM717
# Description: as §2
# Bacteroides dorei HM-718 = assay: as above; type: cell-based; conditions: Phocaeicola dorei, HM718
# Description: as §2
# [15] = tested on: Bacteroides fragilis HM-714; assay: as above; type: cell-based; conditions: HM714
# Description: as §2
# [16] = tested on: 38 tested C. difficile strains; assay: MIC and MBC over the panel of clinical isolates (MIC50, MIC90, range); type: cell-based, Clostridium difficile; conditions: for MIC50 / MIC90: Clostridioides difficile
# Description: MIC50 and MIC90 are the minimum concentration of each agent that inhibited growth of 50% and 90% of the tested isolates, respectively. The minimum bactericidal concentration (MBC) of these drugs was tested by plating 5 μL from wells with no growth onto BHIS agar plates. The MBC was categorized as the lowest concentration that reduced bacterial growth by 99.9% MIC50 and MIC90 are the minimum concentration of each agent that inhibited the growth of 50% and 90% of the tested isolates, respectively. The minimum bactericidal concentration (MBC) of these drugs was tested by plating 5 μL from wells with no growth onto BHIS agar plates. The MBC was categorized as the lowest concentration that reduced bacterial growth by 99.9% [29-31].
# C. difficile NR-49277 [17] = assay: Time kill kinetics assay; type: cell-based, Clostridium difficile; conditions: C. difficile NR-49277, 5×MIC
# Description: Time kill kinetics assay. In order to examine the killing kinetics of DIHQ, a time kill kinetics assay was performed against Clostridium difficile ATCC BAA 1870 and C. difficile NR-49277 as described previously. […] Aliquots were collected from each treatment after 0, 4, 6, 8, 12, and 24 hours of incubation at 37° C. and subsequently serially diluted and plated for viable CFU/mL determination.
# [18] = C. difficile ATCC BAA-1870, 1×MIC
# [19] = C. difficile ATCC BAA-1870, ½×MIC
# [20] = Bifidobacterium adolescentis HM-633, read-out: MIC
# [21] = Bifidobacterium breve HM-1120, read-out: MIC
# [22] = Bifidobacterium longum HM-847, read-out: MIC
# [23] = Bifidobacterium longum HM-845, read-out: MIC
# [24] = Bacteroides dorei HM-719, read-out: MIC
# [25] = Bacteroides fragilis HM-711, read-out: MIC
# [26] = Bifidobacterium breve HM-411, read-out: MIC
# [27] = Bacteroides fragilis HM-710, read-out: MIC
# [28] = Bacteroides fragilis HM-709, read-out: MIC
# [29] = Bifidobacterium angulatum HM-1189, read-out: MIC
# [30] = Lactobacillus crispatus HM-371, read-out: MIC
# [31] = Bacteroides dorei HM-29, read-out: MIC
# [32] = Limosilactobacillus reuteri, HM102, Lactobacillus reuteri HM-102, read-out: MIC
# [33] = Lactobacillus casei ATCC 334, read-out: MIC
# [34] = Bacteroides dorei HM-717, read-out: MIC
# [35] = Bacteroides dorei HM-718, read-out: MIC
# [36] = Bacteroides fragilis HM-714, read-out: MIC
# [37] = concentration inhibiting growth of 50% of the tested isolates, read-out: MIC50
# [38] = concentration inhibiting growth of 90% of the tested isolates, read-out: MIC90
structure (smiles),measurement,setting,value
"CN[C@H](CC(C)C)C(=O)N[C@H]1C(=O)N[C@@H](CC(N)=O)C(=O)N[C@H]2C(=O)N[C@H]3C(=O)N[C@H](C(=O)N[C@H](C(=O)O)c4cc(O)cc(O)c4-c4cc3ccc4O)[C@H](O)c3ccc(c(Cl)c3)Oc3cc2cc(c3O[C@@H]2O[C@H](CO)[C@@H](O)[C@H](O)[C@H]2O[C@H]2C[C@](C)(N)[C@H](O)[C@H](C)O2)Oc2ccc(cc2Cl)[C@H]1O [Vancomycin, vancomycin]",reduction in spore count (in words),"C. difficile ATCC 43255; C. difficile ATCC 43255, ½×MIC or 1×MIC",almost no reduction
same,reduction in spore count (in words),"[1]; C. difficile ATCC BAA-1870, ½×MIC or 1×MIC",almost no reduction
same,reduction in spore count (in words),"C. difficile NR-49277 [2]; C. difficile NR-49277, ½×MIC or 1×MIC",almost no reduction
same,MIC,[3]; Bifidobacterium adolescentis,≤ 1 mg/L
same,MIC,[4]; Bifidobacterium breve,≤ 1 mg/L
same,MIC,[5]; Bifidobacterium longum,≤ 1 mg/L
same,MIC,[6]; Bifidobacterium longum,≤ 1 mg/L
same,MIC,Bacteroides dorei HM-719,64 mg/L
same,MIC,[7]; Bacteroides fragilis,128 mg/L
same,MIC,[8]; Bifidobacterium breve,≤ 1 mg/L
same,MIC,[9]; Bacteroides fragilis,64 mg/L
same,MIC,[10]; Bacteroides fragilis,64 mg/L
same,MIC,[11]; Bifidobacterium angulatum,≤ 1 mg/L
same,MIC,[12]; Lactobacillus crispatus,4 mg/L
same,MIC,Bacteroides dorei HM-29,64 mg/L
same,MIC,"[13]; Limosilactobacillus reuteri, HM102",> 128 mg/L
same,MIC,[14],> 128 mg/L
same,MIC,Bacteroides dorei HM-717,128 mg/L
same,MIC,Bacteroides dorei HM-718,128 mg/L
same,MIC,[15]; Bacteroides fragilis,128 mg/L
same,MIC50,[16],0.5 mg/L
same,MIC90,[16],1 mg/L
same,reduction of bacterial burden within 24 hours,C. difficile NR-49277 [17]; 24 hours,1.22 log10 CFU/mL
"CCc1c(Cl)c(O)c(Cl)c(O)c1C(=O)O[C@H]1[C@H](O)[C@H](OC)[C@H](OC/C2=C\C=C\C[C@H](O)/C(C)=C/[C@H](CC)[C@@H](O[C@@H]3OC(C)(C)[C@@H](OC(=O)C(C)C)[C@H](O)[C@@H]3O)/C(C)=C/C(C)=C/C[C@@H]([C@@H](C)O)OC2=O)O[C@@H]1C [Fidaxomicin, fidaxomicin]",reduction in spore count,"C. difficile ATCC 43255; C. difficile ATCC 43255, 1×MIC",~1.8 log10
same,reduction in spore count,"C. difficile ATCC 43255; C. difficile ATCC 43255, ½×MIC",~0.75 log10
same,reduction in spore count,[1]; [18],~1.8 log10
same,reduction in spore count,[1]; [19],~1.02 log10
same,reduction in spore count,"C. difficile NR-49277 [2]; C. difficile NR-49277, 1×MIC",~1.27 log10
same,reduction in spore count,"C. difficile NR-49277 [2]; C. difficile NR-49277, ½×MIC",~0.8 log10
same,MIC,[3]; [20],≤ 1 mg/L
same,MIC,[4]; [21],≤ 1 mg/L
same,MIC,[5]; [22],≤ 1 mg/L
same,MIC,[6]; [23],≤ 1 mg/L
same,MIC,Bacteroides dorei HM-719; [24],128 mg/L
same,MIC,[7]; [25],> 128 mg/L
same,MIC,[8]; [26],2 mg/L
same,MIC,[9]; [27],> 128 mg/L
same,MIC,[10]; [28],> 128 mg/L
same,MIC,[11]; [29],≤ 1 mg/L
same,MIC,[12]; [30],> 128 mg/L
same,MIC,Bacteroides dorei HM-29; [31],> 128 mg/L
same,MIC,[13]; [32],> 128 mg/L
same,MIC,[14]; [33],> 128 mg/L
same,MIC,Bacteroides dorei HM-717; [34],> 128 mg/L
same,MIC,Bacteroides dorei HM-718; [35],> 128 mg/L
same,MIC,[15]; [36],> 128 mg/L
same,MIC50,[16]; [37],0.015 mg/L
same,MIC90,[16]; [38],0.06 mg/L
"Oc1c(I)cc(I)c2cccnc12 [DIHQ, 5,7-diiodoquinolin-8-ol]",reduction in spore count,"C. difficile ATCC 43255; C. difficile ATCC 43255, 1×MIC",~0.99 log10
same,reduction in spore count,"C. difficile ATCC 43255; C. difficile ATCC 43255, ½×MIC",~0.38 log10
same,reduction in spore count,[1]; [18],~1.24 log10
same,reduction in spore count,[1]; [19],~0.74 log10
same,reduction in spore count,"C. difficile NR-49277 [2]; C. difficile NR-49277, 1×MIC",~0.62 log10
same,reduction in spore count,"C. difficile NR-49277 [2]; C. difficile NR-49277, ½×MIC",~0.56 log10
same,MIC,[3]; [20],128 mg/L
same,MIC,[4]; [21],> 128 mg/L
same,MIC,[5]; [22],128 mg/L
same,MIC,[6]; [23],64 mg/L
same,MIC,Bacteroides dorei HM-719; [24],> 128 mg/L
same,MIC,[7]; [25],> 128 mg/L
same,MIC,[8]; [26],> 128 mg/L
same,MIC,[9]; [27],> 128 mg/L
same,MIC,[10]; [28],> 128 mg/L
same,MIC,[11]; [29],128 mg/L
same,MIC,[12]; [30],64 mg/L
same,MIC,Bacteroides dorei HM-29; [31],> 128 mg/L
same,MIC,[13]; Lactobacillus reuteri HM-102,>128 mg/L
same,MIC,[13]; [32],> 128 mg/L
same,MIC,[14]; [33],16 mg/L
same,MIC,Bacteroides dorei HM-717; [34],> 128 mg/L
same,MIC,Bacteroides dorei HM-718; [35],> 128 mg/L
same,MIC,[15]; [36],> 128 mg/L
same,MIC50,[16]; [37],0.5 mg/L
same,MIC90,[16]; [38],2 mg/L
same,MBC values relative to the corresponding MIC values,[16]; all isolates,equal to or two-fold higher
same,MIC range,[16]; over the 38 tested C. difficile strains,0.06 to 2 mg/L
same,time required to generate a 3-log10 reduction in CFU/mL,C. difficile NR-49277 [17]; 37° C.,4 hours
same,"time to complete eradication of the bacteria (below the detection limit, 100 CFU/mL)",C. difficile NR-49277 [17]; 37° C.,≤ 6 h
